Reference: patent publication US20230046728A1, “TECHNOLOGIES USEFUL FOR ASSESSING PERMEABILITY” (FOG PHARMACEUTICALS, INC., priority 2019, published 2023)

System: Expi293 cells transfected with His-Halotag
Experiment: Library cell penetration assay, cell crash method (Example 6)
Assay type: in vitro ADME, human
Method: Animal cells (e.g., Expi293 cells or human HEK 293 cells) were seeded in tissue culture plates and cultured in Opti-MEM media. The cells were set in PETG flasks at a concentration of 6×10^5 cells/mL and a volume of 30 mL. The cell viability was checked to be above 90-93%. The flasks were placed in a shaking incubator at 300 rpm in 8% CO2.
After 24 hours of incubation, for each flask, one 1.5-mL Lo-bind tube and one 2-mL Lo-Bind tube were prepared. In the 1.5-mL tube, 30 μg of polyhistidine-tagged halotag (His-Halotag) plasmid and Opti-MEM media were added to provide a 1-mL mixture. In the 2-mL Lo-Bind tube, 60 μL of ExpiFectamine and 940 μL of Opti-MEM were added. After 5 minutes, the plasmid/Opti-MEM mixture was added to the ExpiFectamine/Opti-MEM mixture. The combined mixture was placed in an incubator at room temperature for 20 minutes, which was subsequently added to the flask.
After 48 hours of transfection, the transfected cells were checked for viability (90% or higher). The transfected cells were transferred to a protein Lo-Bind Eppendorf 96-well deep well plate (1000 μL), where each well contained 1 million cells in 500 μL of Expi293 media.
Solutions of candidate compounds, either individual peptides or peptides from a peptide library (DPLs), were received at a stock concentration of 10 mM and diluted in DMSO and kept in a “Source Plate”. For DPLs, the peptide concentration in the “Source Plate” was 1 mM, whereas for individual peptides, the concentration was either 100 μM (for a final concentration of 100 nM) or 10 μM (for a final concentration of 10 nM). […] of the DPL or individual peptide solution was added in triplicates to the 96-well plate. The cells were kept in a shaking incubator at 300 rpm and 37 ° C., 8% CO2 overnight for about 18-20 hours.
The following day, one of the following two methods was performed: i) capture beads method or ii) cell crash method.
Cell crash method: the 96-well plate was placed in the centrifuge at 300 g for 5 minutes. 720 μL of the supernatant was removed. The cells were resuspended in residual 200 μL of media. The suspensions were transferred to a 96-well v-bottom plate, which was placed in the centrifuge at 300 g for an additional 5 minutes. All remaining media was removed. The cell pellets were washed with 200 μL of PBS, mixed and placed back in the centrifuge at 300 g and 4 ° C. for an additional 5 minutes. The supernatant was removed and 80 μL of PBS was added.
80 μL of eluted proteins/peptides from the capture beads method or the PBD solution from the cell crash method was transferred into a deepwell low binding plate (500 μL). 80 μL of ammonium hydroxide was added. The plate was kept on a shaker at 37 ° C. for 3 hours. The plate was dried in a speedvac overnight.
The following day, the dried cell pellet was resuspended in 70 μL of 47.5% water with 0.1% FA/47.5% ACN with 0.1% FA/10 μM pepmix (10 mM stock)/5% fresh DMSO. The mixture was let sit in the plate for 1 hour to allow the dissolution of the pellet. If the sample appeared cloudy, more resuspension solution was added (50 μL at a time). 50 μL was transferred directly to the mass spec plate and the plate was sealed with the 384-well plate seal.
Once all samples were added (including cell free), the plate was placed in an autosampler of a mass spectrometer. For the mass spectrometry analysis, methods from example 1 were employed.
Results from certain assessment were presented blow. Cell crash method was utilized. Mass Shifted Peptide Theoretical Max signal is signal of an agent comprising —OH obtained when using the DhaA to convert input agent comprising —Cl into product agent comprising —OH form without involving cells (multiple agents may be converted simultaneously; in some embodiments, can be performed library by library). In some embodiments, each library pool plus positive and negative references was tested in a single well, which in some cases contain about a million or so cells. […]

[1] = Mass Shifted Peptide Signal in Cells divided by Theoretical Max Signal per replicate pair, averaged
[2] = library pool tested as mixture, MS signal of unconverted —Cl agent
[3] = library pool tested as mixture, MS signal of —OH agent

Row | Compound | Cell Penetration Score [1] | Peptide Signal in Cells (from cells; agents comprising —Cl) [2] | Mass Shifted Peptide Signal in Cells [3] | Peptide Signal in Cells (from cells; agents comprising —Cl) (MS signal of unconverted —Cl agent from cells, library pool or individual peptide) | Mass Shifted Peptide Signal in Cells (MS signal of —OH agent from cells, library pool or individual peptide) | Cell Penetration Score (Mass Shifted Peptide Signal in Cells divided by Mass Shifted Peptide Theoretical Max Signal, averaged across replicates)
1 | CNC(=O)[C@H](C)NC(=O)[C@H](C)NC(=O)[C@H](CO)NC(=O)[C@]1(C)CCCC=CCCCCCC[C@@](C)(NC(=O)[C@H](Cc2ccccc2)NC(=O)[C@@H](NC(=O)[C@H](CC(C)C)NC(=O)CCC(=O)NCCOCCOCCCCCCCl)[C@@H](C)O)C(=O)N[C@@H](CCC(=O)O)C(=O)N[C@@H](Cc2ccc(O)cc2)C(=O)N[C@@H](Cc2c[nH]c3ccccc23)C(=O)N[C@@H](C)C(=O)N[C@@H](CCC(N)=O)C(=O)N[C@@H](CC2CCC2)C(=O)N1 (single isomer, unassigned) [PEP000120, HaloTagO2-Leu-Thr-Phe-R8-Glu-Tyr-Trp-Ala-Gln-Cba-S5-Ser-Ala-Ala-NHMe] | 757 | 3E+05 | 4E+07 |  |  | 
2 | CNC(=O)[C@H](C)NC(=O)[C@H](C)NC(=O)[C@H](CO)NC(=O)[C@]1(C)CCCC=CCCCCCC[C@@](C)(NC(=O)[C@H](Cc2ccccc2)NC(=O)[C@@H](NC(=O)[C@H](CC(C)C)NC(=O)CCC(=O)NCCOCCOCCCCCCCl)[C@@H](C)O)C(=O)N[C@@H](CCC(=O)O)C(=O)N[C@@H](Cc2ccc(O)cc2)C(=O)N[C@@H](Cc2c[nH]c3ccccc23)C(=O)N[C@@H](C)C(=O)N[C@@H](CCC(N)=O)C(=O)N[C@@H](CC2CCC2)C(=O)N1 (single isomer, unassigned) [PEP000125, HaloTagO2-Leu-Thr-Phe-R8-Glu-Tyr-Trp-Ala-Gln-Cba-S5-Ser-Ala-Ala-NHMe] |  |  |  | 4E+06 | 5E+07 | 888
3 | CC(C)C[C@H](NC(=O)CCC(=O)NCCOCCOCCCCCCCl)C(=O)N[C@H](C(=O)N[C@@H](Cc1ccccc1)C(=O)N[C@]1(C)CCCCCCC=CCCC[C@@](C)(C(=O)N[C@@H](CO)C(=O)N[C@@H](C)C(=O)N[C@@H](C)C(N)=O)NC(=O)[C@H](CC2CCC2)NC(=O)[C@H](CCC(N)=O)NC(=O)[C@H](C)NC(=O)[C@H](Cc2c[nH]c3ccccc23)NC(=O)[C@H](Cc2ccc(O)cc2)NC(=O)[C@H](C)NC1=O)[C@@H](C)O [PEP000116, HaloTagO2-Leu-Thr-Phe-R8-Ala-Tyr-Trp-Ala-Gln-Cba-S5-Ser-Ala-Ala-NH2] | 475 | 4E+07 | 4E+07 |  |  | 
4 | CC(C)C[C@H](NC(=O)CCC(=O)NCCOCCOCCCCCCCl)C(=O)N[C@H](C(=O)N[C@@H](Cc1ccccc1)C(=O)N[C@]1(C)CCCCCCC=CCCC[C@@](C)(C(=O)N[C@@H](CO)C(=O)N[C@@H](C)C(=O)N[C@@H](C)C(N)=O)NC(=O)[C@H](CC2CCC2)NC(=O)[C@H](CCC(N)=O)NC(=O)[C@H](C)NC(=O)[C@H](Cc2c[nH]c3ccccc23)NC(=O)[C@H](Cc2ccc(O)cc2)NC(=O)[C@H](CCC(=O)O)NC1=O)[C@@H](C)O [PEP000117, HaloTagO2-Leu-Thr-Phe-R8-Glu-Tyr-Trp-Ala-Gln-Cba-S5-Ser-Ala-Ala-NH2] | 1141 | 1E+05 | 8E+07 |  |  | 
5 | CC(C)C[C@H](NC(=O)CCC(=O)NCCOCCOCCCCCCCl)C(=O)N[C@H](C(=O)N[C@@H](Cc1ccccc1)C(=O)N[C@]1(C)CCCCCCC=CCCC[C@@](C)(C(=O)N[C@@H](CO)C(=O)N[C@@H](C)C(=O)N[C@@H](C)C(N)=O)NC(=O)[C@H](CC2CCC2)NC(=O)[C@H](CCC(N)=O)NC(=O)[C@H](C)NC(=O)[C@H](Cc2c[nH]c3ccccc23)NC(=O)[C@H](Cc2ccc(O)cc2)NC(=O)[C@H]([C@@H](C)O)NC1=O)[C@@H](C)O [PEP000118, HaloTagO2-Leu-Thr-Phe-R8-Thr-Tyr-Trp-Ala-Gln-Cba-S5-Ser-Ala-Ala-NH2] | 536 | 4E+07 | 4E+07 |  |  | 
